The source of these data is patent EP2823816A1, “Inhibitors of Neuropilin and use thereof for the treatment of Neuropilin-related diseases” (Tragex Pharma, priority 2013, dated 2015).

One assay deals with HT-29. The assay is described as follows: WST-1 proliferation / cytotoxic test. The format is cell-based. As to conditions: Homo sapiens, Colon, wst-1 cytotoxic test, 72 h. On the procedure: (§1) After observation of cells under the microscope, old media were removed and the adherent cells washed gently twice with PBS (Phosphate Buffer Saline, -Ca^2+, -Mg^2+, Lonza cat n°: 17-512F/12). All cells were detached with 3 ml of trypsin/EDTA (chelator of calcium and magnesium ions) (Lonza), incubated for 5 min at 37°C, and examined using a microscope to ensure that the cells were detached and floating. Then, 3 ml TNS (Trypsin Neutralizing Solution, Lonza, France, cat n° CC-5002) or of culture medium were added to inactivate the trypsin, and the cell suspension was transferred in a falcon tube and centrifuged for 7 min at 1400 rpm. The supernatant was removed and the cell pellet resuspended in […] of culture medium. 50 µL of this solution were transferred in 20 µL of isotonic solution and the cells were counted by count cellular (Beckman Coulter). At day 0, 200 µL of cellular suspension (3.10^3 cells/well for the HUVEC cells, breast cancer cells (MDA-MB-231 1.10^4 cells/well, MDA-MB-468 2.10^4 cells/well,); cervical cancer cells (HeLa 5.000 cells/well); colon cancer cells (HCT-116 5.10^3 cells/well, HCT-29 1.1.10^4 cells/well); pancreas cancer cells (Panc-10.5 1.5.10^4 cells/well); brain cancer cells (U87 5.10^3 cells/well, SH-SYSY 8.10^4 cells/well); Lung cancer cells (A 549 1.10^4 cells/well, NCI-H460 1.10^4 cells/well); fibrosarcoma cells (HT 1080 8.10^3 cells/well); Burkitt's lymphoma cells (DAUDI 3.10^4 cells/well); acute lymphoblastic leukemia cells (CEM 3.10^4 cells/well); chronic myeloid leukemia cells (ERY 5.10^4 cells/well); mantle cell lymphoma (GRANTA 1.10^5 cells/well); B lymphoma cells (VAL 1.10^5 cells/well)) were then plated on 96 well plates and incubated at 37°C in a humidified atmosphere of 5% CO2 for 24 h.
(§2) At day 1, the compound 1 of the invention was added at increasing concentrations (0.1 - 10 µM) in the wells and plates were incubated at 37°C in a humidified atmosphere of 5% CO2 for 72 h.
(§3) The cell proliferation WST-1 assay is a colorimetric assay for the quantification of cell proliferation and viability, based on the enzymatic cleavage of the tetrazolium salt WST-1 added to the culture medium, to a water soluble colored formazan dye, detected by absorbance at 450 nm, by mitochondrial succinate-tetrazoliumreductase in viable cells. An augmentation in enzyme activity will then lead to an increase in the amount of formazan dye formed, which directly correlates to the number of metabolically active cells in the culture.
(§4) After an incubation period of 72 h, at day 4, were prepared the 19 mL medium with reagent WST-1 1mL ([…]). The medium was removed from the 96 microplate and 200 µL of solution WST-1/medium were added for each well. The cells were incubated at 37°C in a humidified atmosphere of 5% CO2 for 1h30 and the absorbance at 450-655 nm was measured by Microplate Manager 5.2 (Bio-Rad).
A general note: Tetrazolium dyes change colour on reduction, which living cells bring about.

The test system of another assay is Granta-519. The experiment in a line: WST-1 proliferation / cytotoxic test. The note with it: Homo sapiens, Mantle cell lymphoma, wst-1 cytotoxic test, 72 h. The assay is classed as cell-based. On the procedure:
as §1, §2, §3, §4

For another assay, the system named is A549. The experiment in a line: WST-1 proliferation / cytotoxic test. The assay is classed as cell-based. As to conditions: Homo sapiens, Lung, wst-1 cytotoxic test, 72 h. On the procedure: as §1, §2, §3, §4
The subject of a further assay is DAUDI. The experiment in a line: WST-1 proliferation / cytotoxic test. As to conditions: Homo sapiens, Burkitt's lymphoma, wst-1 cytotoxic test, 72 h. The format is cell-based. The protocol: as §1, §2, §3, §4
For a further assay, the system named is NCI-H460. The experiment in a line: WST-1 proliferation / cytotoxic test. The format is cell-based. As to conditions: Homo sapiens, Lung, wst-1 cytotoxic test, 72 h. The protocol:
as §1, §2, §3, §4

The test system of the next assay is ERY-1. The assay is described as follows: WST-1 proliferation / cytotoxic test. The note with it: Homo sapiens, Chronic myeloid leukemia, wst-1 cytotoxic test, 72 h. The format is cell-based. The protocol:
as §1, §2, §3, §4

Another assay concerns HeLa. The assay is described as follows: WST-1 proliferation / cytotoxic test. The format is cell-based. As to conditions: Homo sapiens, Cervical, wst-1 cytotoxic test, 72 h. The protocol: as §1, §2, §3, §4
A further assay has as its system Panc-10.5. The experiment in a line: WST-1 proliferation / cytotoxic test. As to conditions: Homo sapiens, Pancreas, wst-1 cytotoxic test, 72 h. The assay is classed as cell-based. On the procedure: as §1, §2, §3, §4
For a further assay, the system named is VAL. The assay is described as follows: WST-1 proliferation / cytotoxic test. The assay is classed as cell-based. The note with it: Homo sapiens, B lymphoma, wst-1 cytotoxic test, 72 h. On the procedure:
as §1, §2, §3, §4

Another assay relates to MDA-MB-468. The assay is described as follows: WST-1 proliferation / cytotoxic test. The note with it: Homo sapiens, Breast, wst-1 cytotoxic test, 72 h. The format is cell-based. On the procedure: as §1, §2, §3, §4
A further assay relates to HCT-116. The assay is described as follows: WST-1 proliferation / cytotoxic test. The assay is classed as cell-based. As to conditions: Homo sapiens, Colon, wst-1 cytotoxic test, 72 h. The protocol:
as §1, §2, §3, §4

In a further assay the test system is SH-SY5Y. The assay is described as follows: WST-1 proliferation / cytotoxic test. The note with it: Homo sapiens, Brain, wst-1 cytotoxic test, 72 h. The format is cell-based. On the procedure:
as §1, §2, §3, §4

In a further assay the test system is U87. The experiment in a line: WST-1 proliferation / cytotoxic test. The format is cell-based. As to conditions: Homo sapiens, U-87 MG, Brain, wst-1 cytotoxic test, 72 h. The protocol: as §1, §2, §3, §4
The subject of another assay is MDA-MB-231 cancer cells. The assay is described as follows: Motility assay (videomicroscopy). The format is cell-based, human. The note with it: MDA-MB-231, 24 h, at the IC50 of the proliferation assay, Figure 4. On the procedure: Endothelial cells (HUVEC) and breast cancer cells (MDA-MB-231) were seeded in 35 mm diameter tissue culture dishes at 3×10^4 and 6×10^4 cells per dish respectively and treated separately with DMSO (control) and compound 1 of the invention (treatment) for 24 h, at the concentration of IC50 obtained with the proliferation assay.
The dishes were placed in an enclosed warming incubator on the motorized stage of a computer-controlled Eclipse Ti inverted microscope (Nikon Instruments Europe) equipped with a CCD Cool- SNAP HQ2 camera (Roper Scientific, USA) and a PC workstation. The incubator allowed samples to be kept at 37°C in a humidified atmosphere containing 5% CO2, 95% air. Phase images were recorded at 100× every 5 min simultaneously over several fields from 0 till 24 h (288 frames). Cell motility was tracked and analyzed for at least 25 cells in each field over three independent experiments. The total distance of migration and the speed of migration were analyzed. The degree of persistence of movement was defined as the ratio between the linear distance and the total distance covered by the cells. Image acquisition and analyses were carried out using Metamorph7 software (Universal Imaging).

In general, IC50 refers to the concentration that inhibits the measured activity by half. A higher IC50 goes with lower potency.

With `CCOc1ccccc1NC(=O)c1ccc(C)c(S(=O)(=O)Nc2ccc(C)cc2)c1` [Compound 1, N-(2-ethoxyphenyl)-4-methyl-3-(N-(p-tolyl)sulfamoyl)benzamide], the IC50 was determined as 500 ± 10 nM in the assay with HT-29; 500 ± 70 nM in the assay with Granta-519; 400 ± 30 nM in the assay with A549; 500 ± 20 nM with DAUDI; 500 ± 70 nM in the assay on NCI-H460; 200 ± 30 nM in the assay with ERY-1. In addition, the IC50 in the assay with HeLa stood at 200 ± 60 nM; in the assay on Panc-10.5, 500 ± 40 nM; in the assay on VAL, 1000 ± 60 nM; in the assay on MDA-MB-468 it was 500 ± 60 nM; in the assay on HCT-116, 500 ± 70 nM; in the assay on SH-SY5Y it was 100 ± 20 nM. In the assay on U87, the IC50 amounted to 500 ± 20 nM. The “motility of cancer cells (migration speed)” value in the assay on MDA-MB-231 cancer cells was “significant anti-migratory effect”.
